Assay results published in patent US10722514B2 (FLX Bio, Inc., priority 2017, dated 2020).
pIC50: −log10 of the molar value.

biological target: T1, recombinant full-length USP7 (Homo sapiens, UniProt Q93009); assay: USP7-mediated ubiquitin-rhodamine cleavage assay; assay type: biochemical; details: recombinant full-length USP7 62 pM; ubiquitin-rhodamine 100 nM; 30-minute incubation with compound, 1 hour reaction at room temperature; read-out: Potency: USP7 IC50
T1 construct: A 25 μl reaction volume containing recombinant full-length USP7 (62 pM)
T1 sequence (Q93009 whole entry): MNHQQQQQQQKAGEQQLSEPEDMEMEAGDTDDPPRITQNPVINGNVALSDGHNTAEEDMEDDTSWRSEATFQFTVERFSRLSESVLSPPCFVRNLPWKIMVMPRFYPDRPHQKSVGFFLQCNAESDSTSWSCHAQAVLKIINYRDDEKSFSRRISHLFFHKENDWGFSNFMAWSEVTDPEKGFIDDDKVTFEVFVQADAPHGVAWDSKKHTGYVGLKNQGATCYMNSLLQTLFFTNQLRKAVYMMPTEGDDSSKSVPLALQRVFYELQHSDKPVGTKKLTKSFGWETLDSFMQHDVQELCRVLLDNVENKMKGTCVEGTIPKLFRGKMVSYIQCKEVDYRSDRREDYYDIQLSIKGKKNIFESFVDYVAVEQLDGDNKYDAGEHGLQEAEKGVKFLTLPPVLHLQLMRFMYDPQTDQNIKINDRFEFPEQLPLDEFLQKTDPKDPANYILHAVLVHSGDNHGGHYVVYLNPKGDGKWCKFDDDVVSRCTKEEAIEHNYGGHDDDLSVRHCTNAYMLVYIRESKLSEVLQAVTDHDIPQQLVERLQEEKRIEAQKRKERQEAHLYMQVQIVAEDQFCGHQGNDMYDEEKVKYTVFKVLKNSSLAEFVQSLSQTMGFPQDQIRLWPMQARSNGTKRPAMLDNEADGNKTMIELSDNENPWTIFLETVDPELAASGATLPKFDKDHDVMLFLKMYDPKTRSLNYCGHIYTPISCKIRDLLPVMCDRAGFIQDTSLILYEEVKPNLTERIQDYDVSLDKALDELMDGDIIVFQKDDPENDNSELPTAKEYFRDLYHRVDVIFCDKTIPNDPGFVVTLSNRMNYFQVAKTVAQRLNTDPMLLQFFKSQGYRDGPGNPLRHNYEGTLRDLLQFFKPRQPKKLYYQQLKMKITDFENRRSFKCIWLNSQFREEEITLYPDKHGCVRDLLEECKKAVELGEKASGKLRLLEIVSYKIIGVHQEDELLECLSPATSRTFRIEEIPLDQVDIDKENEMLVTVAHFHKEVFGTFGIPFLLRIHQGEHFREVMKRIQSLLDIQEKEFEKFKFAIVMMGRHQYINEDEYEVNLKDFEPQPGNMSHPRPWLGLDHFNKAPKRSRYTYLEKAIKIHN
In short: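 USP7 (62 pM) in 20 mM HEPES pH 7.3, 150 mM NaCl, 1 mM TCEP, 125 μg/ml BSA was preincubated with compound (1% DMSO) for 30 min at room temperature. Ubiquitin-rhodamine (100 nM final) was then added for 1 hour, the reaction stopped with acetic acid, and fluorescence read; IC50 from 4-parameter fit.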

Molecule | pIC50
Cc1cc(Cl)cc(-c2ccnc3cc(CN4C(=O)CCC4=O)sc23)c1O[C@H]1C[C@H]2CC[C@@H](C1)N2 [Example 214, 1-((7-(2-(((1R,3r,5S)-8-Azabicyclo[3.2.1]octan-3-yl)oxy)-5-chloro-3-methylphenyl)thieno[3,2-b]pyridin-2-yl)methyl)pyrrolidine-2,5-dione] | > 6.00
OCc1cc2nccc(-c3cc(F)cc(Br)c3O[C@H]3CCCNC3)c2s1 [Example 169, (S)-(7-(3-Bromo-5-fluoro-2-(piperidin-3-yloxy)phenyl)thieno[3,2-b]pyridin-2-yl)methanol] | 4.52 to 5.00
CCC(O)c1cc2ncnc(-c3cc(Cl)cc(C)c3OCC3(C)CNC3)c2s1 (centres unmarked) [Example 47, 1-(4-(5-chloro-3-methyl-2-((3-methylazetidin-3-yl)methoxy)phenyl)thieno[3,2-d]pyrimidin-6-yl)propan-1-ol] | 5.00 to 6.00
2-((4-(5-Chloro-3-methyl-2-(piperidin-4-yloxy)phenyl)thieno[3,2-d]pyrimidin-6-yl)methyl)tetrahydrocyclopenta[c]pyrrole-1,3(2H,3aH)-dione [Example 178] | > 6.00
CCC(O)c1cc2nccc(-c3cc(Cl)cc(C)c3OCC3CCNCC3)c2s1 (centres unmarked) [Example 204, 1-(7-(5-Chloro-3-methyl-2-(piperidin-4-ylmethoxy)phenyl)thieno[3,2-b]pyridin-2-yl)propan-1-ol] | 4.52 to 5.00
Cc1cc(Cl)cc(-c2ccnc3cc(Cn4c(=O)cc[nH]c4=O)sc23)c1O[C@@H]1CNC[C@@H]1F [Example 153, 3-((7-(5-Chloro-2-(((3R,4S)-4-fluoropyrrolidin-3-yl)oxy)-3-methylphenyl)thieno[3,2-b]pyridin-2-yl)methyl)pyrimidine-2,4(1H,3H)-dione] | > 6.00
Cc1cc(Cl)cc(-c2ccnc3cc(CN4C(=O)CCCC4C(F)(F)F)sc23)c1O[C@@H]1CNC[C@@H]1F (stereo partly drawn) [Example 103, 1-((7-(5-Chloro-2-(((3R,4S)-4-fluoropyrrolidin-3-yl)oxy)-3-methylphenyl)thieno[3,2-b]pyridin-2-yl)methyl)-6-(trifluoromethyl)piperidin-2-one] | 5.00 to 6.00
1-((4-(5-Chloro-2-(((3R,4S)-4-fluoropyrrolidin-3-yl)oxy)-3-methylphenyl)thieno[3,2-d]pyrimidin-6-yl)methyl)pyrrolidine-2,5-dione [Example 96] | > 6.00
Cc1cc(Cl)cc(-c2ccnc3cc(CN4C(=O)CC5(CCC5)C4=O)sc23)c1O[C@H]1CCCNC1 [Example 317, 6-[[7-[5-chloro-3-methyl-2-[[(3S)-3-piperidyl]oxy]phenyl]thieno[3,2-b]pyridin-2-yl]methyl]-6-azaspiro[3.4]octane-5,7-dione; 2,2,2-trifluoroacetic acid] | > 6.00
Cc1cc(Cl)cc(-c2ccnc3cc(CN4C(=O)CCC4=O)sc23)c1O[C@H]1C[C@@H]2CN[C@H]1C2 [Example 221, 1-((7-(2-(((1S,4R,6S)-2-azabicyclo[2.2.1]heptan-6-yl)oxy)-5-chloro-3-methylphenyl)thieno[3,2-b]pyridin-2-yl)methyl)pyrrolidine-2,5-dione] | > 6.00

Results, then the molecule that gave them:

pIC50 | Molecule
> 6.00 | Cc1cc([N+](=O)[O-])cc(-c2ccnc3cc(Cn4c(=O)ccn(CC(F)(F)F)c4=O)sc23)c1OC1CCN(C(C)(C)C)CC1 [Example 347, 3-[[7-[2-[(1-tert-butyl-4-piperidyl)oxy]-3-methyl-5-nitro-phenyl]thieno[3,2-b]pyridin-2-yl]methyl]-1-(2,2,2-trifluoroethyl)pyrimidine-2,4-dione]
> 6.00 | Cc1cc([N+](=O)[O-])cc(-c2ccnc3cc(Cn4c(=O)ccn(CC(F)(F)F)c4=O)sc23)c1OCc1cn[nH]c1 [Example 283, 3-[[7-[3-methyl-5-nitro-2-(1H-pyrazol-4-ylmethoxy)phenyl]thieno[3,2-b]pyridin-2-yl]methyl]-1-(2,2,2-trifluoroethyl)pyrimidine-2,4-dione; 2,2,2-trifluoroacetic acid]
> 6.00 | Cc1cc(Cl)cc(-c2ccnc3cc(CN4C(=O)NC(C)(C)C4=O)sc23)c1OC1CCNCC1 [Example 185, 3-((7-(5-Chloro-3-methyl-2-(piperidin-4-yloxy)phenyl)thieno[3,2-b]pyridin-2-yl)methyl)-5,5-dimethylimidazolidine-2,4-dione]
5.00 to 6.00 | Cc1cc(Cl)cc(-c2ccnc3cc(CN4CCCCS4(=O)=O)sc23)c1O[C@@H]1CNC[C@@H]1F [Example 2, 2-((7-(5-Chloro-2-(((3R,4S)-4-fluoropyrrolidin-3-yl)oxy)-3-methylphenyl)thieno[3,2-b]pyridin-2-yl)methyl)-1,2-thiazinane 1,1-dioxide]
4.52 to 5.00 | CC(Oc1ccc(Cl)cc1-c1ccnc2cc(CO)sc12)C1CNC1 (centres unmarked) [Example 42, (7-(2-(1-(Azetidin-3-yl)ethoxy)-5-chlorophenyl)thieno[3,2-b]pyridin-2-yl)methanol]
< 4.52 | Cc1cc(Cl)cc(-c2ccnc3cc(CO)sc23)c1OC1CCCNC1=O (centres unmarked) [Example 200, 3-(4-Chloro-2-(2-(hydroxymethyl)thieno[3,2-b]pyridin-7-yl)-6-methylphenoxy)piperidin-2-one]
> 6.00 | Cc1cc(Cl)cc(-c2ccnc3cc(CN4C(=O)C5CCCCN5C4=O)sc23)c1O[C@@H]1CNC[C@@H]1F (stereo partly drawn) [Example 138, 2-((7-(5-Chloro-2-(((3R,4S)-4-fluoropyrrolidin-3-yl)oxy)-3-methylphenyl)thieno[3,2-b]pyridin-2-yl)methyl)tetrahydroimidazo[1,5-a]pyridine-1,3(2H,5H)-dione]
> 6.00 | Cc1cc(Cl)cc(-c2ccnc3cc(CN4C(=O)CCC4=O)sc23)c1OC1CCNC1(C)C (centres unmarked) [Example 343, 1-[[7-[5-chloro-2-(2,2-dimethylpyrrolidin-3-yl)oxy-3-methyl-phenyl]thieno[3,2-b]pyridin-2-yl]methyl]pyrrolidine-2,5-dione]
> 6.00 | Cc1cc(Cl)cc(-c2ccnc3cc(CN4C(=O)NC(C)(C)C4=O)sc23)c1O[C@@H]1CNC[C@@H]1F [Example 154, 3-((7-(5-Chloro-2-(((3R,4S)-4-fluoropyrrolidin-3-yl)oxy)-3-methylphenyl)thieno[3,2-b]pyridin-2-yl)methyl)-5,5-dimethylimidazolidine-2,4-dione]

same assay, conditions: recombinant full-length USP7 62 pM; ubiquitin-rhodamine 100 nM; 30-minute incubation, 1 hour reaction at room temperature; read-out: Potency (USP7 IC50)

pIC50 | Molecule
> 6.00 | Cc1cc(Cl)cc(-c2ccnc3cc(CN4C(=O)CN(CC(F)(F)F)C4=O)sc23)c1O[C@H]1CCCNC1 [Example 693, 3-[[7-[5-chloro-3-methyl-2-[[(3S)-3-piperidyl]oxy]phenyl]thieno[3,2-b]pyridin-2-yl]methyl]-1-(2,2,2-trifluoroethyl)imidazolidine-2,4-dione; 2,2,2-trifluoroacetic acid]
> 6.00 | Cc1cc(Cl)cc(-c2ccnc3cc(Cn4c(=O)ccn(CC(F)(F)F)c4=O)sc23)c1O[C@@H]1C[C@@H]2NCCO[C@H]2C1 [Example 695, 3-[[7-[2-[[(4aS,6R,7aS)-2,3,4,4a,5,6,7,7a-octahydrocyclopenta[b][1,4]oxazin-6-yl]oxy]-5-chloro-3-methyl-phenyl]thieno[3,2-b]pyridin-2-yl]methyl]-1-(2,2,2-trifluoroethyl)pyrimidine-2,4-dione]

same assay, conditions: recombinant full-length USP7 62 pM; ubiquitin-rhodamine 100 nM; 30-minute pre-incubation, 1 hour reaction at room temperature; read-out: Potency (USP7 IC50)

Molecule | pIC50
Cc1cc(Cl)cc(-c2ccnc3cc(Cn4c(=O)ccn(C)c4=O)sc23)c1O[C@H]1CCNC[C@@H]1F [Example 569] | > 6.00
Cc1cc(Cl)cc(-c2ccnc(CCCN3C(=O)CCC3=O)c2)c1OC1CCNCC1 [Example 410, 1-[3-[4-[5-chloro-3-methyl-2-(4-piperidyloxy)phenyl]-2-pyridyl]propyl]pyrrolidine-2,5-dione; 2,2,2-trifluoroacetic acid] | 5.00 to 6.00
Cc1cc(Cl)cc(-c2ccnc3cc(Cn4c(=O)ccn(C)c4=O)sc23)c1OC1CCCN(C)C1 (centres unmarked) [Example 503, 3-[[7-[5-chloro-3-methyl-2-[(1-methyl-3-piperidyl)oxy]phenyl]thieno[3,2-b]pyridin-2-yl]methyl]-1-methyl-pyrimidine-2,4-dione] | > 6.00

More lines, now with the values ahead:

pIC50 | Molecule
> 6.00 | Cc1cc(Cl)cc(-c2ccnc3cc(Cn4c(=O)ccn(C)c4=O)sc23)c1OC(C)CN (centres unmarked) [Example 553, 3-[[7-[2-(2-amino-1-methyl-ethoxy)-5-chloro-3-methyl-phenyl]thieno[3,2-b]pyridin-2-yl]methyl]-1-methyl-pyrimidine-2,4-dione; 2,2,2-trifluoroacetic acid]
5.00 to 6.00 | Cc1cc(Cl)cc(-c2ccncc2CCCN2C(=O)CCC2=O)c1OC1CCNCC1 [Example 411, 1-[3-[4-[5-chloro-3-methyl-2-(4-piperidyloxy)phenyl]-3-pyridyl]propyl]pyrrolidine-2,5-dione; 2,2,2-trifluoroacetic acid]
> 6.00 | Cc1cc(Cl)cc(-c2ccnc3cc(Cn4c(=O)ccn(CC(F)(F)F)c4=O)sc23)c1OC1(C)CCCNC1 (centres unmarked) [Example 639, 3-[[7-[5-chloro-3-methyl-2-[(3-methyl-3-piperidyl)oxy]phenyl]thieno[3,2-b]pyridin-2-yl]methyl]-1-(2,2,2-trifluoroethyl)pyrimidine-2,4-dione]
> 6.00 | Cc1cc(Cl)cc(-c2ccnc3cc(Cn4c(=O)ccn(C)c4=O)sc23)c1O[C@@H]1CCN(C(C)C)C[C@@H]1C [Example 488, 3-[[7-[5-chloro-2-[[(3S,4R)-1-isopropyl-3-methyl-4-piperidyl]oxy]-3-methyl-phenyl]thieno[3,2-b]pyridin-2-yl]methyl]-1-methyl-pyrimidine-2,4-dione]
> 6.00 | Cc1cc(Cl)cc(-c2ccnc3cc(Cn4c(=O)ccn(CC(F)(F)F)c4=O)sc23)c1O[C@@H]1CCN(C(=O)C(F)(F)F)C[C@@H]1C [Example 609, 3-[[7-[5-chloro-3-methyl-2-[[(3S,4R)-3-methyl-1-(2,2,2-trifluoroacetyl)-4-piperidyl]oxy]phenyl]thieno[3,2-b]pyridin-2-yl]methyl]-1-(2,2,2-trifluoroethyl)pyrimidine-2,4-dione]
